Reference: patent publication US10301348B2, “Compounds for use in prevention and treatment of neurodegenerative diseases and pain” (Academia Sinica, priority 2013, dated 2019)
“Also recorded” adds a separate entry of the source.

What was measured:
[1] = Oral bioavailability / pharmacokinetic study in ICR mice; format: in vivo; settings: male, mouse, plasma, oral 10 mg/kg vs intravenous 1 mg/kg
Experimental: To measure oral bioavailability of a test compound, blood samples were collected from male ICR mice (6 weeks old; 20-25 g) after oral (10 mg/kg) or intravenous (1 mg/kg) administrations of the test compound. The blood samples collected at the indicated periods were extracted with methanol containing 0.1% formic acid, and then 10 μL of each extracted sample were injected to UPLC-MSMS for quantitation.
Pharmacokinetic Study. The compound was administered as aqueous solutions in normal saline. Male ICR mice were purchased from BioLASCO Taiwan Co., Ltd. To measure oral bioavailability of test compounds (T1-11 and JMF3464), blood samples were collected from male ICR mice (6 weeks old; […]) after oral (10 mg/kg) or intravenous (1 mg/kg) administrations of test compounds. For T1-11, blood samples were collected at 2, 10, 30, 60, 120, 360 minutes after intravenous administration and at 15, 30, 45, 60, 120, 360 minutes after oral administration. For JMF3464, the blood samples were collected at 2, 10, 30, 60, 120, 240, 360, 480 minutes after intravenous administration and at 15, 30, 60, 90, 120, 240, 360, 480 minutes after oral administration. The blood samples were extracted by methanol with 0.1% formic acid, and then 10 μL of the extracted samples were injected to UPLC-MSMS to for quantitation.
The pharmacokinetic parameters were obtained using a pharmacokinetic program WinNonlin, fitting data to a noncompartmental model. […] The total plasma clearance (CL) was calculated as dose/AUCi.v.. The oral bioavailability (F) of the test compound by oral administration was calculated from the AUC0-∞ of the oral dose divided by the AUC0-∞ of the i.v. dose.

[2] = tested on: mutant ATXN2 aggregations; assay: Filter retardation assay of mutant SCA2 protein aggregation in pSCA2-104Q-EGFP-transfected cells; format: cell-based, Rat; settings: 10 μM, 24 h
Experimental: (§1) FIGS. 4A-B show the effects of T1-11 in preventing mutant SCA2 gene overexpression-induced protein aggregations and behavioral performance in SCA2 transgenic mice. (A) pSCA2-22Q-EGFP or pSCA2-104Q-EGFP-transfected cells were treated with 10 μM T1-11 or 10 μM JMF1907 (a T1-11-derived A2A-R agonist) for 24 h. Cells were harvested and subjected to a filter retardation assay or image acquisition. (B) Wild type (WT) or transgenic mice (SCA2) drank water with or without T1-11. Rotarod performance was used to measure the behavioral function of mice.
Rat PC12 cells purchased from American Type Culture Collection (ATCC; Manassas, Va., USA) were maintained in DMEM supplemented with 10% horse serum and 5% FBS and incubated in a CO2 incubator (5%) at 37° C. LIPOFECTAMINE™ 2000 (Invitrogen) was used as a vehicle to transfer plasmids into cells according to the manufacture's protocol. Plasmids were kindly provided by Dr. Pulst (Department of Neurology, University of Utah, USA). Normally, 5 μg of DNA combined with 5 μl of LIPOFECTAMINE™ 2000 was applied to each well of 6-well plates. The plating number was (1˜1.5)×10^6 cells/well. After transfections for 6 h, cells were treated with reagents for another 24 h. Images were taken with a Zeiss Axiovert 200M inverted fluorescence microscope (Göttingen, Germany).
Filter retardation assay. […]

[3] = tested on: SCA2 transgenic mice (ATAXN2^Q127); assay: Rotarod performance of SCA2 transgenic mice; format: in vivo; settings: compound in drinking water
Experimental: as §1
Animals. The C57BL/6 mice were purchased from National Laboratory Animal Center (Taiwan). The transgenic mice (ATAXN2^Q127) were provided by Dr. Pulst. Mice were kept in a soundproof room under a 12/12 h light/dark cycle and controlled temperature (22±2° C.). Food and water were available ad libitum. All efforts were made to minimize the number of animals used and their pain and discomfort, according to the principles and directives of the NIH Guide for the Care and Use of Laboratory Animals. […]
Rotarod performance. […] Motor coordination was assessed using a rotarod apparatus (UGO BASILE, Comerio, Italy) at an accelerated speed (10 to 28 rpm) over a period of 5 min. […] Latency to fall was automatically recorded. […]

[4] = tested on: mice with acid-induced chronic widespread pain; assay: Acid-induced chronic widespread pain model of fibromyalgia; format: in vivo
Experimental: (§2) FIGS. 10A-C show the analgesic effect of JMF3464 on a mouse model of fibromyalgia. […] Open arrows indicate the time mice received acid injection. Black arrows indicate the time mice received T1-11 (p.o.). […] The analgesic effect of JMF3464 is dose-dependent. The effective dose started from 100 μg/kg (i.p.).
Acid-induced chronic widespread pain model. The fibromyalgia model was modified from the acid-induced chronic pain model established by Sluka's group (Sluka et al., 2003 Pain. 106:229-239).
Mice were briefly anesthetized with 2% vaporized isoflurane and received an i.m. injection of 20 μL genistein (1 μM) in the left gastrocnemius muscle. After 3 minutes, an injection of 20 μL acid saline (pH 4.0) was given to the same site. The mice then developed long-lasting mechanical hyperalgesia for more than 2 weeks. Analgesic effects of T1-11 (p.o. with an 0.9-mm/7-cm gavage) were tested 4 days after mice had developed the mechanical hyperalgesia. Mechanical hyperalgesia was assayed by testing the withdrawal response of mouse hindpaws to 0.2-mN von Frey filament stimulation.

[5] = tested on: mice treated with intermittent cold stress; assay: Intermittent cold stress model of fibromyalgia; format: in vivo; settings: T1-11 i.p.
Experimental: as §2
Intermittent cold stress model. The fibromyalgia model was developed by Ueda's group, in which mice were treated with intermittent cold stress for 2 days (Nishiyori and Ueda, 2008 Mol Pain. 4:52). Mice treated with intermittent cold stress developed long-lasting (>2 weeks) mechanical and thermal hyperalgesia. Analgesic effects of JMF3464 (i.p. or p.o.) were tested in these mice 5 days after intermittent cold stress. Mechanical hyperalgesia was assayed by testing the withdrawal response of mouse hindpaws to 0.2-mN von Frey filament stimulation.

[6] = background statement, species not given; cited from earlier work
[7] = tested on: SCA3 transgenic mice expressing ataxin-3-Q79; assay: SCA3 transgenic mice: rotarod test and NeuN staining of pontine nuclei; settings: 4-month-old SCA3 transgenic mice, daily oral 1 mg per day
Experimental: (A) SCA3 transgenic mice were given drinking water containing vehicle (0.2% DMSO) or T1-11 (0.1 mg/ml) beginning at 4 weeks-old.
Behavioral test. Balance and coordination functions of mice were determined by performing rotarod test. Mice were placed on the moving drum of a rotarod apparatus (Accelerating Model, Ugo Basile Biological Research Apparatus), which was then accelerated until mouse fell from the drum onto a plate to stop the timer. Latency to fall was measured in four daily trials over the course of 4 days.
Immunohistochemical staining. Wild-type or SCA3 transgenic mice were anesthetized and perfused transcardially with 4% paraformaldehyde in PBS. Brain was equilibrated in Tissue-Tek embedding medium and frozen in liquid nitrogen. Coronal sections (20 μm) prepared by cryostat sectioning were permeabilized in 0.1% Triton X-100, and incubated at 4° C. for 48 hours with diluted anti-NeuN monoclonal antiserum (Chemicon). Subsequently, sections were washed and incubated with biotinylated horse anti-mouse IgG followed by incubation with avidin-biotin-horseradish peroxidase complex. The sections were then washed and developed in a diaminobenzidine solution. NeuN-positive neurons were visualized and counted by a Leica DM2500 microscope equipped with a Retiga-2000R CCD camera (QImaging) and a 3-axis computer-controlled MAC 600 motorized stage (Ludl Electronics) with the aid of StereoInvestigator software (MBF Bioscience). Each analysis included the processing of 15 brain sections per mouse.

## OC[C@H]1O[C@@H](n2cnc3c(NCc4ccc(O)cc4)ncnc32)[C@H](O)[C@@H]1O [Compound T1-11, N^6-(4-hydroxybenzyl)adenosine]
[1]
  bioavailability: 2.8%
[2]
  mutant ATXN2 aggregations: effective is preventing mutant ATXN2 aggregations
[3]
  behavioral performance (rotarod): effective
[4]; i.p.
  analgesic effect, i.p.: excellent analgesic effects
[4]; p.o., up to 2 mg/kg, von Frey mechanical hyperalgesia
  analgesic effect, oral administration: no analgesic effect
[5]
  analgesic effect, i.p.: excellent analgesic effects
[6]
  bioavailability (F): < 5%
[7]
  pontine neuronal death (NeuN staining): significantly ameliorated neuronal death in the pontine nuclei; also recorded: significantly alleviated pontine neuronal death
  rotarod performance: significantly better than that of vehicle-treated ataxin-3-Q79 mice; also recorded: significantly improved rotarod performance
